We go through one compound from patent US20140000884A1, “PETROLEUM RECOVERY PROCESS AND SYSTEM” (Shell Oil Company, priority 2012, published 2014).

The nature of the data set: Dynamic viscosity of crude/dimethyl sulfide blends (rheometer, closed cup). The format is physicochemical. On the procedure:
The quality of dimethyl sulfide as an oil recovery agent based on the crude oil viscosity lowering properties of dimethyl sulfide was evaluated. Three crude oils having widely disparate viscosity characteristics—an African Waxy crude, a Middle Eastern asphaltic crude, and a Canadian asphaltic crude—were blended with dimethyl sulfide.
A control sample of each crude was prepared containing no dimethyl sulfide, and samples of each crude were prepared and blended with dimethyl sulfide to prepare crude samples containing increasing concentrations of dimethyl sulfide. Each sample of each of the crudes was heated to 60° C. to dissolve any waxes therein and to permit weighing of a homogeneous liquid, weighed, allowed to cool overnight, then blended with a selected quantity of dimethyl sulfide. The samples of the crude/dimethyl sulfide blend were then heated to 60° C. and mixed to ensure homogeneous blending of the dimethyl sulfide in the samples. Absolute (dynamic) viscosity measurements of each of the samples were taken using a rheometer and a closed cup sensor assembly. Viscosity measurements of each of the samples of the West African waxy crude and the Middle Eastern asphaltic crude were taken at 20° C., 40° C., 60° C., 80° C., and then again at 20° C. after cooling from 80° C., where the second measurement at 20° C. is taken to measure the viscosity without the presence of waxes since wax formation occurs slowly enough to permit viscosity measurement at 20° C. without the presence of wax. Viscosity measurements of each of the samples of the Canadian asphaltic crude were taken at 5° C., 10° C., 20° C., 40° C., 60° C., 80° C.

Each structure is given as a SMILES string.

Turning to `CSC` [Dimethyl Sulfide, dimethyl sulfide], the Viscosity by setting is: (DMS 1.43 wt. %, 20° C.) 212525 mPa s; (DMS 1.43 wt. %, 40° C.) 14721 mPa s; (DMS 1.43 wt. %, 60° C.) 2209 mPa s; (DMS 1.43 wt. %, 80° C.) 538 mPa s; (DMS 2.07 wt. %, 20° C.) 134880 mPa s; (DMS 2.07 wt. %, 40° C.) 10523 mPa s. The Viscosity by setting is: (DMS 2.07 wt. %, 60° C.) 1747 mPa s; (DMS 2.07 wt. %, 80° C.) 427 mPa s; (DMS 4.87 wt. %, 20° C.) 28720 mPa s; (DMS 4.87 wt. %, 40° C.) 3235 mPa s; (DMS 4.87 wt. %, 60° C.) 985 mPa s; (DMS 4.87 wt. %, 80° C.) 328 mPa s.
